Measurements: the supplement of paper PMC10307832

Key:
Experiment in all cases: relative viability (nuclei count vs DMSO), 5 days (fraction); higher = more cells survive
AT9283 + Lapatinib = compound: O=C(Nc1c[nH]nc1-c1nc2ccc(CN3CCOCC3)cc2[nH]1)NC1CC1 [AT9283] + CS(=O)(=O)CCNCc1ccc(-c2ccc3ncnc(Nc4ccc(OCc5cccc(F)c5)c(Cl)c4)c3c2)o1 [Lapatinib] (partner 2 µM)
Outline: (§1)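 Lung cancer cell lines, seeded in 1536-well plates, were treated the following day by pin tool with a single drug or with five library-drug doses (not always all listed) in √10 steps on top of a fixed anchor-drug dose. Cells were fixed and nuclei stained in one step after 5 days, and nuclei were counted. Relative viability is the nuclei count for treated wells divided by that for vehicle wells, reported as medians of duplicate plates.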

AT9283 + Phenformin = compound: O=C(Nc1c[nH]nc1-c1nc2ccc(CN3CCOCC3)cc2[nH]1)NC1CC1 [AT9283] + N=C(N)NC(=N)NCCc1ccccc1 [Phenformin] (partner 250 µM)
Outline: as §1

AT9283 + Palbociclib = compound: O=C(Nc1c[nH]nc1-c1nc2ccc(CN3CCOCC3)cc2[nH]1)NC1CC1 [AT9283] + CC(=O)c1c(C)c2cnc(Nc3ccc(N4CCNCC4)cn3)nc2n(C2CCCC2)c1=O [Palbociclib] (partner 0.5 µM)
Outline: as §1

Erlotinib + Pictilisib = compound: C#Cc1cccc(Nc2ncnc3cc(OCCOC)c(OCCOC)cc23)c1 [Erlotinib] + CS(=O)(=O)N1CCN(Cc2cc3nc(-c4cccc5[nH]ncc45)nc(N4CCOCC4)c3s2)CC1 [Pictilisib] (partner 1 µM)
Outline: as §1

Erlotinib + Crizotinib = compound: C#Cc1cccc(Nc2ncnc3cc(OCCOC)c(OCCOC)cc23)c1 [Erlotinib] + C[C@@H](Oc1cc(-c2cnn(C3CCNCC3)c2)cnc1N)c1c(Cl)ccc(F)c1Cl [Crizotinib] (partner 1 µM)
Outline: as §1

Row | Cell Line | relative viability (AT9283 + Lapatinib; first compound 0.003 µM) | relative viability (AT9283 + Lapatinib; first compound 0.03 µM) | relative viability (AT9283 + Lapatinib; first compound 0.09487 µM) | relative viability (AT9283 + Lapatinib; first compound 0.3 µM) | relative viability (AT9283 + Phenformin; first compound 0.003 µM) | relative viability (AT9283 + Phenformin; first compound 0.03 µM) | relative viability (AT9283 + Phenformin; first compound 0.09487 µM) | relative viability (AT9283 + Phenformin; first compound 0.3 µM) | relative viability (AT9283 + Palbociclib; first compound 0.003 µM) | relative viability (AT9283 + Palbociclib; first compound 0.03 µM) | relative viability (AT9283 + Palbociclib; first compound 0.09487 µM) | relative viability (AT9283 + Palbociclib; first compound 0.3 µM) | relative viability (Erlotinib + Pictilisib; first compound 0.02 µM) | relative viability (Erlotinib + Pictilisib; first compound 0.6325 µM) | relative viability (Erlotinib + Pictilisib; first compound 2 µM) | relative viability (Erlotinib + Crizotinib; first compound 0.02 µM) | relative viability (Erlotinib + Crizotinib; first compound 0.2 µM) | relative viability (Erlotinib + Crizotinib; first compound 0.6325 µM) | relative viability (Erlotinib + Crizotinib; first compound 2 µM) | relative viability (Erlotinib + Pictilisib; first compound 0.2 µM)
1 | HCC-15 | 0.745 | 0.37 | 0.159 | 0.142 | 0.464 | 0.277 | 0.106 | 0.117 | 0.65 | 0.681 | 0.187 | 0.164 | 0.758 | 0.735 | 0.659 | 0.784 | 0.833 | 0.936 | 0.7 | –
2 | HCC-78 | 0.562 | 0.587 | 0.224 | 0.196 | 0.611 | 0.511 | 0.333 | 0.26 | 0.473 | 0.476 | 0.396 | 0.347 | 0.195 | 0.218 | 0.21 | 0.266 | 0.254 | 0.271 | 0.217 | 0.207
3 | NCI-H2170 | 0.242 | 0.261 | 0.2 | 0.2 | 0.433 | 0.375 | 0.177 | 0.14 | 0.446 | 0.37 | 0.198 | 0.148 | 0.316 | 0.236 | 0.176 | 1.17 | 1.06 | 1.1 | 0.569 | 0.282
4 | NCI-H23 | 0.968 | 0.395 | 0.225 | 0.207 | 0.811 | 0.744 | 0.413 | 0.297 | 0.496 | 0.454 | 0.417 | 0.243 | 0.56 | 0.61 | 0.464 | 0.565 | 0.481 | 0.601 | 0.433 | 0.517
5 | NCI-H838 | 0.98 | 0.225 | 0.18 | 0.182 | 0.564 | 0.23 | 0.165 | 0.17 | 0.257 | 0.227 | 0.154 | 0.138 | 0.471 | 0.503 | 0.477 | 0.953 | 0.838 | 0.907 | 0.693 | 0.454
6 | NCI-H522 | – | – | – | – | 0.555 | 0.481 | 0.44 | 0.377 | 0.945 | 0.731 | 0.577 | 0.585 | – | – | – | – | – | – | – | –
7 | NCI-H1650 | 0.697 | 0.287 | 0.225 | 0.115 | 0.491 | 0.385 | 0.223 | 0.175 | 0.38 | 0.404 | 0.242 | 0.237 | 0.483 | 0.578 | 0.47 | 0.85 | 0.721 | 0.924 | 0.643 | –
8 | EMC-BAC-2 | 0.875 | 0.599 | 0.229 | 0.225 | 0.565 | 0.251 | 0.208 | 0.163 | 0.471 | 0.376 | 0.289 | 0.247 | 0.543 | 0.542 | 0.47 | 0.806 | 0.68 | 0.83 | 0.63 | 0.535
